Data on 3 compounds can be found in patent publication US7985745B2, “Method for pain treatment” (Abbott Laboratories, priority 2006, dated 2011).

In test [1] the test system is neuropathic pain. The test can be described thus: Chung model: L5/L6 spinal nerve ligation, mechanical allodynia by von Frey filaments. The class given is in vivo, rat. The note with it: 30 minutes before testing. How it is done:
Animals were prepared for testing, by use of a surgical procedure that induces neuropathic pain in one paw. Male Sprague Dawley rats were purchased from Charles River (Portage, Mich.). Prior to surgery, animals were housed in groups and maintained in a temperature-regulated environment. Following nerve ligation surgery, animals were housed in groups, and had access to food and water ad libitum.
The L5 and L6 spinal nerves of anesthetized rats were tightly ligated in a manner described previously (see Kim and Chung, Pain (1992) vol. 50 pp. 355-363). An incision was made on the dorsal portion of the hip and the muscle was blunt-dissected to reveal the spinal processes. The L6 transverse process was removed, and the left side L5 and L6 spinal nerves were tightly ligated with 5.0 braided silk suture. The wound was cleaned, the membrane sewn with 4.0 dissolvable Vicryl suture and the skin closed with wound clips. The paw affected by the surgical procedure (the left paw) develops an allodynic response, a hypersensitivity to mechanical and other stimuli; neuropathic pain is assessed as an increased sensitivity in the surgically affected (left) allodynic paw compared to the control paw on the right side, and measured by comparing the response of the (left side) allodynic paw to the response of the unaffected right side control paw.
For the assessment of neuropathic pain, mechanical allodynia in the affected paw of animals that had undergone spinal nerve ligation was evaluated using testing with von Frey filaments. As described previously by S. R. Chaplan, et al (“Quantitative assessment of tactile allodynia in the rat paw” J. Neurosci. Meth. (1994) vol. 53 pp. 55-63), two weeks following surgery rats were acclimated to a testing box constructed of plexiglass with a wire mesh floor which allowed access to the plantar surface of the animal's hindpaws. Using an Up-Down method (Dixon, Annual Rev. Pharmacol. Toxicol. (1980) vol. 20, pp. 441-462; Chaplan et al. “Quantitative assessment of tactile allodynia in the rat paw” J. Neuroscience Methods (1994) vol. 53 pp. 55-63), von Frey filaments of increasing stiffness were applied to the plantar surface of the hindpaws and the withdrawal response of the animals was observed; for the surgically affected paw with neuropathic pain (the left side paw) the baseline level of allodynia has a withdrawal threshold of ≦4 g of pressure. By comparison, for the control paw without allodynia (in this case the right side paw), the typical withdrawal pressure is around 15 g. Representative compounds of the invention, administered intraperitoneally 30 minutes before testing, are able to reduce the symptoms of neuropathic pain and induce a dose-dependent increase in the withdrawal threshold for allodynic (left side) limb, up to a maximum effect of 15 g. The efficacy of the compound in reducing neuropathic pain at different doses is determined by comparing response in the surgery-affected paw versus the response in the control paw. This is expressed as the MPE (maximum percent effect), or 100 times the withdrawal threshold of the allodynic (left side) divided by the withdrawal threshold of the control (right side).

In test [2] the test system is mechanical allodynia after skin incision. The test can be described thus: Surgical skin incision model, mechanical allodynia by von Frey hair. The class given is in vivo, rat. Here is the method:
This is a surgical skin incision model (Joshi, et al. Pain 123 (2006) 75-82). Animals (rats) were prepared for testing by subjecting them to a surgical procedure carried out under sterile conditions, where the plantaris muscle was elevated and incised longitudinally with the origin and insertion of the muscle remaining intact. The skin was then closed with two mattress sutures (e.g. 5-0 nylon sutures). After surgery, animals were allowed to recover on a warming plate and housed individually in cages with soft bedding. […] Animals were tested for mechanical allodynia using von Frey hair mechanical stimulation 2, 24, and 48 h after surgery as described for the Chung model.

Test [3] concerns inflammatory pain. In words: Carrageenan-induced thermal hyperalgesia, hotbox assay. The class given is in vivo. The note with it: 90 minutes after carrageenan, tested 30 minutes after dosing. How it is done: To assess the effectiveness of representative compounds of the invention against acute model inflammatory pain, animals were tested in an acute model of carrageenan-induced thermal hyperalgesia (see for example, Honore, et al. Behavioural Brain Research 167 (2006) 355-364; Porreca, et al. Journal of Pharmacology and Experimental Therapeutics (2006) vol. 318 pp. 195-205). Carrageenan was injected into the test paw of the animal, and after 90 minutes, the test drug was administered by intraperitoneal dosing. The effect on thermal hyperalgesia was assessed in a hotbox assay which was done 30 minutes after the intraperitoneal dosing of the test drug, and the MPE (maximal percent effect) reported by comparison to the control paw (not injected with carrageenan), according to 100 times the withdrawal latency of the carrageenan injected paw (in seconds) divided by the withdrawal latency of the control (not injected with carrageenan) paw.

Test [4] deals with tactile allodynia. In words: Complete Freund's adjuvant model, tactile allodynia by von Frey filaments. Type of test: in vivo, rat. The note with it: 48 hours after CFA, mechanical stimulus. Here is the method: In a separate method of assessing the effectiveness of representative compounds of the invention against hyperalgesia, animals were tested in the acute model of adjuvant-induced hyperalgesia using Complete Freund's Adjuvant (CFA) as described above, but in this case, tactile allodynia to a mechanical stimulus was measured using calibrated von Frey filaments (Stoelting, Wood Dale, Ill.). Animals were prepared as described above: a solution of Complete Freund's adjuvant (150 microliters of a 50% aqueous solution, Sigma Chemical Company, St. Louis, Mo.) was injected into the plantar surface of test paw of the animal (rat). Rats so injected develop a hyperalgesia to mechanical (touch) stimulation which is assessed 48 hours after injection of the Complete Freund's adjuvant. Withdrawal threshold was determined by increasing and decreasing stimulus intensity, and estimated using the Dixon's up-down method (Dixon, Annual Rev. Pharmacol. Toxicol. (1980) vol. 20, pp. 441-462; Chaplan et al. “Quantitative assessment of tactile allodynia in the rat paw” J. Neuroscience Methods (1994) vol. 53 pp. 55-63). Rats were placed into inverted individual plastic containers (20×12.5×20 cm) on top of a suspended wire mesh with a 1 cm^2 grid to provide access to the ventral side of the hind paws, and acclimated to the test chambers for 20 min. The von Frey filaments were presented perpendicularly to the plantar surface of the selected hind paw, and then held in this position for approximately 8 seconds with enough force to cause a slight bend in the filament. Positive responses included an abrupt withdrawal of the hind paw from the stimulus, or flinching behavior immediately following removal of the stimulus. Withdrawal threshold was determined using an up-down procedure (Dixon, Annual Rev. Pharmacol. Toxicol. (1980) vol. 20, pp. 441-462; Chaplan et al. “Quantitative assessment of tactile allodynia in the rat paw” J. Neuroscience Methods (1994) vol. 53 pp. 55-63). The strength of the maximum filament used for von Frey testing was 15.0 g.

`CN1CCN(c2cc(-c3ccc(C#N)cc3)nc(N)n2)CC1.O=C(O)/C=C\C(=O)O` [Example 1, 4-(2-Amino-6-(4-methylpiperazin-1-yl)pyrimidin-4-yl)benzonitrile, maleate]: the MPE in test [1] (30 micromole/kg i.p.) is 14%; in test [1] (100 micromole/kg i.p.), 44%; in test [1] (300 micromole/kg i.p.), 77%; in test [1] (500 micromole/kg i.p.), 97%; in test [2] (30 micromole/kg i.p.), 31%; in test [2] (100 micromole/kg i.p.), 65%. The MPE was found to be 36% in test [3] (30 micromole/kg i.p.), 100% in test [3] (100 micromole/kg i.p.), 42% in test [4] (30 micromole/kg i.p.) and 63% in test [4] (100 micromole/kg i.p.).

For `CN1CCN(C(=O)c2cc3cc(Cl)ccc3[nH]2)CC1` [Example 3, reference compound], the MPE in test [1] (100 micromole/kg i.p.) is reported as 16%; in test [1] (250 micromole/kg i.p.), 50%; in test [1] (500 micromole/kg i.p.), 94%; in test [2] (250 micromole/kg i.p.), 46%; in test [2] (500 micromole/kg i.p.) it was 79%; in test [3] (30 micromole/kg i.p.) it was 23%. Moreover, the MPE came out at 49% in test [3] (100 micromole/kg i.p.), 96% in test [3] (300 micromole/kg i.p.), 55% in test [4] (30 micromole/kg i.p.) and 71% in test [4] (300 micromole/kg i.p.).

`CNC1CN(c2nc(N)nc3c2CCCc2ccccc2-3)C1` [Example 6, 4-(3-Methylamino-azetidin-1-yl)-6,7-dihydro-5H-benzo[6,7]cyclohepta[1,2-d]pyrimidin-2-ylamine]: the MPE in test [1] (100 micromole/kg i.p.) was determined as 36%; in test [1] (300 micromole/kg i.p.), 78%; in test [2] (30 micromole/kg i.p.), 21%; in test [2] (100 micromole/kg i.p.) it was 69%; in test [3] (100 micromole/kg i.p.) it was 41%; in test [4] (30 micromole/kg i.p.) it was 35%. For the same compound, the MPE in test [4] (100 micromole/kg i.p.) is reported as 49%.
